US10336732B2, “1-heterocyclyl isochromanyl compounds and analogs for treating CNS disorders” (Sunovion Pharmaceuticals Inc., priority 2015, dated 2019)

target: T1, 5-HT2C (Homo sapiens, UniProt P28335); test: In vitro radioligand binding assay, 5-HT2C, [3H]mesulergine; design: concentration or dose not given beside the values; details: human recombinant (HEK-293 cells)
T1 construct: expressed in transfected cells; host or cells: HEK-293 cells
T1 sequence (P28335 33-458): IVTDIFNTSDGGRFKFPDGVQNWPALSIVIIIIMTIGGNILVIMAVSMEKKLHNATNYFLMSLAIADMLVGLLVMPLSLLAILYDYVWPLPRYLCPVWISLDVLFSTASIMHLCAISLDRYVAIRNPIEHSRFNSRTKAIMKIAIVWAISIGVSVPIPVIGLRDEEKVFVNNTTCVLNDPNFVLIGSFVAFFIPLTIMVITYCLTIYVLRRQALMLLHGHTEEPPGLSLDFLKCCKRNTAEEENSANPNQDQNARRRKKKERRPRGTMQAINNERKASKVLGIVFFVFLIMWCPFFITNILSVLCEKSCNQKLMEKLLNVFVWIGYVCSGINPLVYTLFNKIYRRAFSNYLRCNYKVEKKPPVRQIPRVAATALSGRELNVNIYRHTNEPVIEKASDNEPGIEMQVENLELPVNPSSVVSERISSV
Protocol: Certain compounds were tested by in vitro binding assays using standard procedures. […] These receptors and assays are well known to those skilled in the art, as exemplified by the following: Abramovitz, M. et al. (2000), Biochem. Biophys. Acta., 1483: 285-293 (EP4, IP (PGI2)); Aharony, D. et al. (1993), Mol. Pharmacol., 44: 356-363 (NK2); Ardati, A. et al. (1997), Mol. Pharmacol., 51: 816-824 (NOP (ORL1)); Bignon, E. et al. (1999), J. Pharmacol. Exp. Ther. 289: 742-751 (CCK1 (CCKA)); Bloomquist, B. T. et al. (1998), Biochem. Biophys. Res. Commun., 243: 474-479 (GAL2); Brockhaus, M. et al. (1990), Proc. Natl. Acad. Sci. U.S.A., 87: 3127-3131 (TNF-α); Brown, G. B. (1986), J. Neurosci., 6: 2064-2070 (Na+ channel (site 2)); Buchan, K. W. et al. (1994), Brit. J. Pharmacol., 112: 1251-1257 (ETA); Cesura, A. M. et al. (1990), Mol. Pharmacol., 37: 358-366 (MAO-A); Choi, D. S. et al. (1994), FEBS Lett., 352: 393-399 (5-HT2B); Clark, A. F. et al. (1996), Invest. Ophtalmol. Vis. Sci., 37: 805-813 (GR); Couvineau, A. et al. (1985), Biochem. J., 231: 139-143 (VPAC1 (VIP1)); Dorje, F. et al. (1991), J. Pharmacol. Exp. Ther., 256: 727-733 (M1, M2, M3, M4); Ferry, G. et al. (2001), Eur. J. Pharmacol., 417: 77-89 (PPARγ); Fuchs, S. et al. (2001), Mol. Med., 7: 115-124 (ETB); Fuhlendorff, J. et al. (1990), Proc. Natl. Acad. Sci. U.S.A., 87: 182-186 (Y2); Ganapathy M E. et al. (1999), J. Pharmacol. Exp. Ther., 289: 251-260 (sigma (non-selective)); Gopalakrishnan, M. et al. (1996), J. Pharmacol. Exp. Ther., 276: 289-297 (N neuronal α4β2); Greengrass, P. and Bremner, R. (1979), Eur. J. Pharmacol., 55: 323-326 (α1 (non-selective)); Grandy, D. K. et al. (1989), Proc. Natl. Acad. Sci. U.S.A., 86: 9762-9766 (D25); Guard, S. et al. (1993), Eur. J. Pharmacol., 240:177-184 (BB (non-selective)); Heuillet, E. et al. (1993), J. Neurochem., 60: 868-876 (NK1, P2X); Hope, A. G. et al. (1996), Brit. J. Pharmacol., 118: 1237-1245 (5-HT3); Hoyer, D. et al. (1985), Eur. J. Pharmacol., 118: 1-12 (5-HT1B); Hugues, M. et al. (1982), J. Biol. Chem., 257: 2762-2769 (5-HT2A, SKCa channel); Joseph, S. S. et al. (2004), Naun.-Sch. Arch. Pharm., 369: 525-532 (β2); Le, M. T. et al. (2005), Eur. J. Pharmacol., 513: 35-45 (AT1); Le Fur, G. et al. (1983), Life Sci., 33: 449-457) (BZD (peripheral); Lee, Y. M. et al. (1993), J. Biol. Chem., 268: 8164-8169 (CCK2 (CCKB)); Leurs, R. et al. (1994), Brit. J. Pharmacol., 112: 847-854 (H2); Levin, M. C. et al. (2002), J. Biol. Chem., 277: 30429-30435 (11); Lewin, A. H. et al. (1989), Mol. Pharmacol., 35: 189-194 (Cl− channel (GABA-gated)); Lukas, R. J. (1986), J. Neurochem., 46: 1936-1941 (N muscle-type); Luthin, D. R. et al. (1995), Mol. Pharmacol., 47: 307-313; (A2A); Mackenzie, R. G. et al. (1994), Eur. J. Pharmacol., 266: 79-85 (D3); Mulheron, J. G. et al. (1994), J. Biol. Chem., 269: 12954-12962 (5-HT1A); Meng, F. et al. (1993), Proc. Natl. Acad. Sci. U.S.A., 90: 9954-9958 (κ (KOP)); Monsma, F. J. et al. (1993), Mol. Pharmacol., 43: 320-327 (5-HT6); Neote, K. et al. (1993), Cell, 72: 415-425 (CCR1); Pacholczyk, T. et al. (1991), Nature, 350: 350-354 (sst (non-selective, norepinephrine transporter)); Peralta, E. G. et al. (1987), Embo. J., 6: 3923-3929 (M3); Pristupa, Z. B. et al. (1994), Mol. Pharmacol., 45: 125-135 (dopamine transporter); Pruneau, D. et al. (1998), Brit. […]

| SMILES | 5HT2c percent inhibition of specific binding [%] |
| --- | --- |
| Fc1ccc2c(c1)CCO[C@H]2[C@@H]1CCCN1 [Compound I-9, (S)-2-((R)-6-fluoroisochroman-1-yl)pyrrolidine] | 61 |
| Clc1ccc2c(c1)[C@H]([C@@H]1CCCN1)OCC2 [Compound I-29, (S)-2-((R)-7-chloroisochroman-1-yl)pyrrolidine] | 67 |
| Fc1cccc2c1[C@H]([C@@H]1CCCN1)OCC2 [Compound I-1, (S)-2-((R)-8-fluoroisochroman-1-yl)pyrrolidine] | 63 |
| Fc1cccc2c1[C@H]([C@@H]1CCN1)OCC2 [Compound I-83, (S)-2-((R)-8-fluoroisochroman-1-yl)azetidine] | 64 |
| Fc1ccc2c(c1)CCO[C@H]2[C@@H]1CCN1 [Compound I-90, (S)-2-((R)-6-fluoroisochroman-1-yl)azetidine] | 59 |
